In patent publication US9611500B2, “Method for detecting the presence of the viable cells in an endodontic sample” (KINGS COLLEGE LONDON, priority 2011, dated 2017):
Marks after values point to notes of the source that are not given here.

System: Multispecies mature biofilm from clinical isolates (Actinomyces radicidentis, Enterococcus faecalis, Propionibacterium acnes, Streptococcus epidermidis …)
Assay: Viable post-experimental counts of multi-species biofilms on root halves after irrigation
Type: cell-based
Conditions: 1% NaOCl solution irrigation (5 ml) of root canals of extracted teeth with two-week biofilm; paper point sampling; FAA plates incubated anaerobically 7 days; triplicates
Source text: Twenty freshly extracted, single rooted teeth were obtained under ethical Approval (South East London ethical approval 10/H0804/056). Each tooth had the crown removed to obtain 15 mm long specimens, using a 0.3 mm thickness diamond wafering blade (Extec, Enfield, Conn., USA) on a 11-1180 Isomet low speed saw (Buehler, Düsseldorf, Germany). Root canal patency was confirmed using an ISO 10 K-file. Canals were instrumented with Gates Glidden (nr. 2-4) for coronal flaring followed by ProTaper F3 instrumentation and apical instrumentation with an ISO 45 K-file 1 mm short of the working length. Irrigation throughout the instrumentation was undertaken with sterile saline. […]
Multispecies mature biofilm from clinical isolates, identified through sequencing (Actinomyces radicidentis, Enterococcus faecalis, Propionibacterium acnes, Streptococcus epidermidis, Streptococcus oxalis) were grown in 24 multiwell plates for two weeks on root halves using a modification of the established 5-day biofilm protocol (Gmür & Guggenheim 1983). […] The turbidity was adjusted with fresh mFUM to OD at 540 nm (Labsystems iEMS Reader MF) to 0.5. […]
After each root had been subjected to its respective irrigation protocol and imaging steps, the root halves were aseptically placed in a 9 cm petri dish (SLS, East Riding of Yorkshire, UK). […] After the incubation, the numbers of colonies on FAA plates were counted. […]

Structure (SMILES): OCl [Sodium hypochlorite]
- Microbial counts expressed as log10 (Mean ± SE) after anaerobic growth: 0.51* Log10
